For 55 compounds, inhibition results are on record in patent US10156566B2, “Detoxification of microbial virulence factors in oral cavity” (priority 2015, dated 2018).

Counter-ions that a name gives are not always drawn.

As usually defined, the inhibition is how much of the control response was suppressed.

This assay deals with Lipopolysaccharide.
As to `CCCCCCCCCC(=O)OC[C@H](COP(=O)([O-])OCC[N+](C)(C)C)OC(=O)CCCCCCCCC` [1,2-Didecanoyl PC], the inhibition stood at 67.9%.

`CCCCCCCCCCCCCCCC[N+](C)(C)C` [Cetrimonium chloride]: the inhibition was found to be 99.5%.

Compound `CCCCC/C=C\C/C=C\C/C=C\C/C=C\CCCC(=O)Nc1ccc(O)cc1` [AM404] showed an inhibition of 47.6%.

Regarding `CCCCCCCCCCCCCCCCCC[N+](C)(C)Cc1ccccc1` [Stearalkonium chloride], the inhibition turned out to be 96.5%.

`CCCCCCCCCCCC(=O)NCCCN(C)C` [(Laurylamidopropyl)dimethyl amine] yielded an inhibition of 99.1%.

The compound `CC(C)=CCC/C(C)=C/CC/C(C)=C/CC[C@]1(C)CCc2cc(O)cc(C)c2O1` [δ-Tocotrienol] gave an inhibition of 52.4%.

`Cc1cc(C(C)(C)CC(C)(C)C)ccc1OCCOCC[N+](C)(C)Cc1ccccc1` [Methylbenzethonium chloride, reference compound]: the inhibition worked out at 93%.

In turn, `CC/C=C\C/C=C\C/C=C\CCCCCCCC(=O)OCC` [(z,z,z)-9,12,15-octadecatrienoic acid ethyl ester] came in with an inhibition of 34.9%.

Regarding `CCCCCCCC/C=C\CCCCCCCC(=O)OC[C@H](CO)OC(C)=O` [1-Oleoyl-2-acetyl-sn-glycerol], the inhibition is 36.2%.

As for `CCCCCCCCCCCCC/C=C/[C@@H](O)[C@H](COP(=O)(O)O)NC(=O)CCCCCCC` [C-8 Ceramide-1-phosphate], the inhibition is 42.7%.

`COc1cc(/C=C/C(=O)CC(=O)/C=C/c2ccc(O)c(OC)c2)ccc1O` [Curcumin] had an inhibition of 55.9%.

In turn, `CCCCC/C=C\C/C=C\C/C=C\C/C=C\CCCC(=O)NCCc1ccc(O)c(O)c1` [N-Arachidonoyl Dopamine] came in with an inhibition of 49.1%.

With `CCCCCCCCCCCC(=O)NCCO` [Dodecanamide MEA], the inhibition stood at 44.3%.

The compound `O=C1O/C(=C/Br)CC[C@H]1c1cccc2ccccc12` [(S)-Bromoenol lactone] gave an inhibition of 95.2%.

`CCCCCCCCCCCCCS(=O)(=O)O` [TRIDECYL SULFONIC ACID SODIUM SALT]: the inhibition worked out at 95.6%.

In the case of “Benzalkonium chloride [reference compound]”, the inhibition was determined as 97.5%.

Turning to `CCCCC/C=C\C/C=C\C/C=C\C/C=C\CCCC(=O)NCCO` [Anandamide (N-arachidonylethanol amide)], the inhibition amounted to 31.3%.

`CCCCCCCCCCCCC/C=C/[C@@H](O)[C@H](CO)NC(=O)CCCCC` [C-6 Ceramide] returned an inhibition of 48%.

As for Octoxynol-9, the inhibition is 9.83%.

With `CCCCCCCCCCCC[N+](C)(C)CCOc1ccccc1` [Domiphen bromide, reference compound], the inhibition amounted to 95.5%.

`CCCCCCCC(=O)OC[C@H](CO)OC(=O)CCCCCCC` [1,2-Dioctanoyl-sn-glycerol] gave an inhibition of 51.2%.

On to `CCCCCCCC/C=C\CCCCCCCC(=O)OCCOCCO` [diglycol monooleate], for which the inhibition was found to be 67%.

The compound Quaternium-17 came in with an inhibition of 100%.

Compound `CCCCCCCC/C=C\CCCCCCCC(=O)OCCO` [9-octadecenoic acid (z)-,2-hydroxyethyl ester] gave an inhibition of 46%.

For the compound `CCCCCCCCCC(=O)OC[C@H](CO)OC(=O)CCCCCCCCC` [1,2-Didecanoyl-sn-glycerol], the inhibition was 47.4%.

On to `CC(C)CCC[C@@H](C)[C@H]1CC[C@H]2[C@@H]3CC(=O)[C@@]4(O)C[C@@H](O)CC[C@]4(C)[C@H]3CC[C@]12C` [5α-hydroxy-6-keto Cholesterol], for which the inhibition came out at 81.7%.

For `O=C1O/C(=C/Br)CCC1c1cccc2ccccc12` (stereo not shown) [Bromoenol lactone], the inhibition is 99.7%.

For the compound `CCCCCCCC/C=C\CCCCCCCC(=O)OCC(O)CO` (stereo not drawn) [α-glyceryl monooloeate], the inhibition was 49%.

On to `CCCCCCCCCCCCCC[N+](C)(C)Cc1ccccc1` [Tetradecylbenzyldimethylammonium chloride], for which the inhibition came to 93.8%.

As for `CCCCCCCCCC[N+](C)(C)CCCCCCCCCC` [Didecyldimethylammounium chloride], the inhibition was 97.5%.

`CCCCCCCCCCCCCCCCCCCCCC(=O)NCCS(=O)(=O)O` [N-Docosanoyl Taurine] had an inhibition of 85.2%.

`CCCCCCCCCCCCCCCC[N+](C)(C)Cc1ccccc1` [Dimethylbenzylcetylammonium chloride]: the inhibition amounted to 95.5%.

The compound `CCCCCC/C=C\CCCCCCCC(=O)OCC` [ethyl cis-9-hexadecenoate] came in with an inhibition of 31.8%.

In turn, `CCCCCCCCCCCC[P+](c1ccccc1)(c1ccccc1)c1ccccc1` [DODECYLTRIPHENYLP[…], 98%, DODECYLTRIPHENYLP[…]] displayed an inhibition of 91.1%.

For `CCCCCCCC[N+](C)(C)CCCCCCCC` [Dioctyldimethylammonium chloride], the inhibition is 93.3%.

On to `CCCCCCCCCCCCC/C=C/[C@@H](O)[C@@H](N)CO` [D-erythro-Sphingosine C-18], for which the inhibition amounted to 63.8%.

As to `O=S(=O)(O)c1ccc(O)cc1` [Aluminum phenol sulfonate], the inhibition came out at 27.4%.

`CC/C=C\C/C=C\C/C=C\CCCCCCCC(=O)OC` [α-linolenic acid methyl ester] came in with an inhibition of 24.9%.

`CCCCCCCCCCCC[N+](C)(C)Cc1ccccc1` [Dimethyldodecylbenzylammonium chloride] displayed an inhibition of 98.2%.

Compound `CCCCCCCCCCCCCCCOS(=O)(=O)O` [Sodium pentadecyl sulfate] showed an inhibition of 86.6%.

Compound `CCCCCCCCCCCCCCCC(=O)NCCO` [Hexadecanamide MEA] registered an inhibition of 32.5%.

On to `CCCCCCCCCCCCCCCCCCN(CCO)CCO` [STEARYLDIETHANOLAMINE], for which the inhibition worked out at 88.1%.

With `CCCCCCCCCCCCCCCCCC[N+](C)(C)C` [Steartrimonium chloride], the inhibition was 71.3%.

The compound `CCCCCCCC/C=C\CCCCCCCCCCCCCC(=O)NCCS(=O)(=O)O` [N-Nervonoyl Taurine] registered an inhibition of 79.8%.

As for Laureth-9, the inhibition was determined as 99.9%.

`CCCCCCCCCCCCCCCC(=O)OC[C@H](COP(=O)([O-])OCC[N+](C)(C)C)OC(=O)CCCC=O` [POV-PC] gave an inhibition of 48.7%.

The compound `CCCCCCCC/C=C\CCCCCCCCN` [Oleyl amine] had an inhibition of 99.6%.

For the compound `CCCCCCCCCCCCCCCCOC[C@H](CO)OC(C)=O` [Hexadecyl Acetyl Glycerol], the inhibition was 42%.

`CCCCCCCCCCCCC/C=C/[C@@H](O)[C@H](CO)NC(=O)CCCCCCC` [C-8 Ceramide]: the inhibition was found to be 65.5%.

The compound `CC(C)=CCC/C(C)=C/CC/C(C)=C/CC[C@]1(C)CCc2c(C)c(O)c(C)c(C)c2O1` [alpha.-Tocotrienol] returned an inhibition of 29.9%.

Laureth-6 came in with an inhibition of 100%.

As to `CCCCCCCCCCCC[N+](C)(C)Cc1ccccc1` [Dimethyldodecylbenzylammonium bromide], the inhibition was determined as 98.1%.

In turn, `CCCCC/C=C\C/C=C\C/C=C\C/C=C\CCCCOC(CO)CO` [2-Arachidonyl Glycerol ether] came in with an inhibition of 35%.

As for `CCCCCCCCCCCCCCCC(=O)NCC(=O)O` [N-Palmitoyl Glycine], the inhibition stood at 85.8%.

In the case of `CC(C)c1ccc2c(c1)c(SC(C)(C)C)c(CC(C)(C)C(=O)O)n2Cc1ccc(Cl)cc1` [MK 886 (sodium salt)], the inhibition turned out to be 47.2%.
